Values after ≈ are worked out from the molar mass of the structure shown.
These compounds were tested on S. pneumoniae ATCC 49619 (assay: Minimal inhibitory concentration (MIC) by microdilution method (CLSI M7-A7)). Settings: Streptococcus pneumoniae, ATCC49619, cation-adjusted Mueller-Hinton Broth supplemented with 3% (v/v) lysed horse blood.
Format: cell-based, Streptococcus pneumoniae
Method in brief: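 Broth microdilution per CLSI M7-A7 in cation-adjusted Mueller-Hinton broth, supplemented with 3% (v/v) lysed horse blood for S. pneumoniae; MIC reported in mg/l.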
For CCNC(=O)Nc1cc2cc(NC(=O)c3ccc(S(C)(=O)=O)cc3)cc(C)c2cn1 [Example 117, N-[3-(3-ethyl-ureido)-8-methyl-isoquinolin-6-yl]-4-methanesulfonyl-benzamide], the MIC was 0.25 mg/L (≈ 0.586 µM).
Compound CCNC(=O)Nc1cc2cc(NC(=O)c3ccncc3)cc(C)c2cn1 [Example 116, N-[3-(3-ethyl-ureido)-8-methyl-isoquinolin-6-yl]-isonicotinamide] has an MIC of 0.125 mg/L (≈ 0.358 µM).
In the case of CCNC(=O)Nc1cc2cccc(Nc3ccc(C(=O)NC)cc3)c2cn1.Cl [Example 204, 4-[3-(3-ethyl-ureido)-isoquinolin-8-ylamino]-N-methyl-benzamide hydrochloride], the MIC is reported as 2 mg/L.
Compound CCNC(=O)Nc1cc2c(-c3cccc(O)c3)ccc(C)c2cn1 [Example 68, 1-ethyl-3-[5-(3-hydroxy-phenyl)-8-methyl-isoquinolin-3-yl]-urea] has an MIC of 4 mg/L (≈ 12.4 µM).
CCNC(=O)Nc1cc2c(-c3cncc(C)c3)ccc(C)c2cn1 [Example 10, 1-ethyl-3-[8-methyl-5-(5-methyl-pyridin-3-yl)-isoquinolin-3-yl]-urea] was tested, and the MIC was 2 mg/L (≈ 6.24 µM).
Work on CCNC(=O)Nc1cc2c(F)c(-c3cncc(C)c3)cc(C)c2cn1 [Example 141, 1-ethyl-3-[5-fluoro-8-methyl-6-(5-methylpyridin-3-yl)isoquinolin-3-yl]-urea] yielded an MIC of 0.5 mg/L (≈ 1.48 µM).
Compound CCNC(=O)Nc1cc2cccc(Nc3ccc(C)c(C(=O)O)c3)c2cn1 [Example 265, 5-[3-(3-ethyl-ureido)-isoquinolin-8-ylamino]-2-methyl-benzoic acid] has an MIC of 1 mg/L (≈ 2.74 µM).
Compound CCNC(=O)Nc1cc2cccc(Nc3cncnc3)c2cn1 [Example 149, 1-ethyl-3-[8-(pyrimidin-5-ylamino)-isoquinolin-3-yl]-urea] has an MIC of 2 mg/L (≈ 6.49 µM).
With CCNC(=O)Nc1cc2c(-c3ccnc(Cl)c3)ccc(C)c2cn1 [Example 27, 1-[5-(2-chloro-pyridin-4-yl)-8-methyl-isoquinolin-3-yl]-3-ethyl-urea] the MIC was 2 mg/L (≈ 5.87 µM).
CCNC(=O)Nc1cc2c(-c3ccnc(N)c3)ccc(C)c2cn1 [Example 45, 1-[5-(2-amino-pyridin-4-yl)-8-methyl-isoquinolin-3-yl]-3-ethyl-urea] was tested, and the MIC was 2 mg/L (≈ 6.22 µM).
CCNC(=O)Nc1cc2cccc(Nc3cc(C)ccn3)c2cn1.Cl [Example 162, 1-ethyl-3-[8-(4-methyl-pyridin-2-ylamino)-isoquinolin-3-yl]-urea hydrochloride] was tested, and the MIC was 2 mg/L.
With CCNC(=O)Nc1cc2cccc(Nc3cc(F)ccn3)c2cn1.Cl [Example 158, 1-ethyl-3-[8-(4-fluoro-pyridin-2-ylamino)-isoquinolin-3-yl]-urea hydrochloride] the MIC was 2 mg/L.
Work on CCNC(=O)Nc1cc2cc(NCc3ccccc3)cc(C)c2cn1 [Example 58, 1-(6-benzylamino-8-methyl-isoquinolin-3-yl)-3-ethyl-urea] yielded an MIC of 8 mg/L (≈ 23.9 µM).
CCNC(=O)Nc1cc2cc(NC(=O)c3cccc(C(=O)OC)c3)cc(C)c2cn1 [Example 194, N-[3-(3-ethyl-ureido)-8-methyl-isoquinolin-6-yl]isophthalamic acid methyl ester] was tested, and the MIC was 4 mg/L (≈ 9.84 µM).
Work on CCNC(=O)Nc1cc2cccc(NCc3cccnc3)c2cn1 [Example 71, 1-ethyl-3-{8-[(pyridin-3-ylmethyl)-amino]-isoquinolin-3-yl}-urea] yielded an MIC of 16 mg/L (≈ 49.8 µM).
Compound CCNC(=O)Nc1cc2cccc(COc3ccccn3)c2cn1.Cl [Example 261, 1-ethyl-3-[8-(pyridin-2-yloxymethyl)-isoquinolin-3-yl]-urea hydrochloride] has an MIC of 8 mg/L.
For CCNC(=O)Nc1cc2c(-c3c[nH]cn3)ccc(Cl)c2cn1 [Example 288, 1-[8-chloro-5-(1H-imidazol-4-yl)-isoquinolin-3-yl]-3-ethyl-urea], the MIC was 2 mg/L (≈ 6.33 µM).
In the case of CCNC(=O)Nc1cc2cccc(CNc3ccccn3)c2cn1.Cl [Example 263, 1-ethyl-3-[8-(pyridin-2-ylaminomethyl)-isoquinolin-3-yl]-urea hydrochloride], the MIC is reported as 4 mg/L.
With CCNC(=O)Nc1cc2cc(NCc3ccc4cn[nH]c4c3)cc(C)c2cn1 [Example 184, 1-ethyl-3-{6-[(1H-indazol-6-ylmethyl)-amino]-8-methyl-isoquinolin-3-yl}-urea] the MIC was 4 mg/L (≈ 10.7 µM).
Work on CCNC(=O)Nc1cc2c(-c3cccc4[nH]ccc34)ccc(C)c2cn1 [Example 69, 1-ethyl-3-[5-(1H-indol-4-yl)-8-methyl-isoquinolin-3-yl]-urea] yielded an MIC of 16 mg/L (≈ 46.5 µM).
Compound CCNC(=O)Nc1cc2cccc(COc3ccncc3C(=O)OC)c2cn1.Cl [Example 212, 4-[3-(3-ethyl-ureido)-isoquinolin-8-ylmethoxy]-nicotinic acid methyl ester hydrochloride] has an MIC of 8 mg/L.
CCNC(=O)Nc1cc2c(F)c(-c3cnc4ccccc4c3)cc(C)c2cn1 [Example 143, 1-ethyl-3-[5-fluoro-8-methyl-6-(quinolin-3-yl)-isoquinolin-3-yl]-urea] gave an MIC of 0.125 mg/L (≈ 0.334 µM).
Work on CCNC(=O)Nc1cc2cccc(-c3ccc(C(=O)O)cc3)c2cn1 [Example 123, 4-[3-(3-ethyl-ureido)-isoquinolin-8-yl]-benzoic acid] yielded an MIC of 4 mg/L (≈ 11.9 µM).
CCNC(=O)Nc1cc2cccc(Nc3cccc(OC)c3)c2cn1 [Example 168, 1-ethyl-3-[8-(3-methoxy-phenylamino)-isoquinolin-3-yl]-urea] was tested, and the MIC was 0.5 mg/L (≈ 1.49 µM).
Work on CCNC(=O)Nc1cc2cc(NCc3ccc4cc[nH]c4c3)cc(C)c2cn1.Cl [Example 134, 1-ethyl-3-{6-[(1H-indol-6-ylmethyl)-amino]-8-methyl-isoquinolin-3-yl}-urea hydrochloride] yielded an MIC of 16 mg/L.
For CCNC(=O)Nc1cc2cc(-c3cncc(C)c3)cc(Nc3cccnc3)c2cn1 [Example 237, 1-ethyl-3-[6-(5-methyl-pyridin-3-yl)-8-(pyridin-3-ylamino)-isoquinolin-3-yl]-urea], the MIC was 0.25 mg/L (≈ 0.627 µM).
In the case of CCNC(=O)Nc1cc2cc(NCc3ccncc3)cc(C)c2cn1.Cl [Example 122, 1-ethyl-3-{8-methyl-6-[(pyridin-4-ylmethyl)-amino]-isoquinolin-3-yl}-urea hydrochloride], the MIC is reported as 8 mg/L.
CCNC(=O)Nc1cc2cc(-c3cncc(C)c3)cc(C)c2cn1 [Example 39, 1-ethyl-3-[8-methyl-6-(5-methyl-pyridin-3-yl)-isoquinolin-3-yl]-urea] was tested, and the MIC was 1 mg/L (≈ 3.12 µM).
For CCNC(=O)Nc1cc2cc(-c3cncnc3C(C)C)cc(C)c2cn1 [Example 95, 1-ethyl-3-[6-(4-isopropyl-pyrimidin-5-yl)-8-methyl-isoquinolin-3-yl]-urea], the MIC was 16 mg/L (≈ 45.8 µM).
Work on CCNC(=O)Nc1cc2cc(-c3ccc(CO)cc3)cc(C)c2cn1 [Example 15, 1-ethyl-3-[6-(4-hydroxymethyl-phenyl)-8-methyl-isoquinolin-3-yl]-urea] yielded an MIC of 0.5 mg/L (≈ 1.49 µM).
CCNC(=O)Nc1cc2cc(NCc3ccc4c(c3)OCCN4C)cc(C)c2cn1.Cl [Example 130, 1-ethyl-3-{8-methyl-6-[(4-methyl-3,4-dihydro-2H-benzo[1,4]oxazin-7-ylmethyl)-amino]isoquinolin-3-yl}-urea hydrochloride] showed an MIC of 8 mg/L.
With CCNC(=O)Nc1cc2c(F)c(-c3cccc(NC(C)=O)c3)cc(-c3cccnc3)c2cn1 [Example 113, N-{3-[3-(3-ethyl-ureido)-5-fluoro-8-pyridin-3-yl-isoquinolin-6-yl]-phenyl}-acetamide] the MIC was 1 mg/L (≈ 2.25 µM).
Work on CCNC(=O)Nc1cc2c(-c3ccnc(OC)c3)ccc(Nc3cccnc3)c2cn1 [Example 225, 1-ethyl-3-[5-(2-methoxy-pyridin-4-yl)-8-(pyridin-3-ylamino)-isoquinolin-3-yl]urea] yielded an MIC of 0.125 mg/L (≈ 0.302 µM).
CCNC(=O)Nc1cc2c(-c3cscc3C)ccc(C)c2cn1 [Example 64, 1-ethyl-3-[8-methyl-5-(4-methyl-thiophen-3-yl)-isoquinolin-3-yl]-urea] gave an MIC of 1 mg/L (≈ 3.07 µM).
For CCNC(=O)Nc1cc2cccc(Nc3ccc(C(=O)OC)cn3)c2cn1.Cl [Example 165, 6-[3-(3-ethyl-ureido)-isoquinolin-8-ylamino]-nicotinic acid methyl ester hydrochloride], the MIC was 4 mg/L.
With CCNC(=O)Nc1cc2cccc(Nc3ccc(OC)nc3)c2cn1 [Example 214, 1-ethyl-3-[8-(6-methoxy-pyridin-3-ylamino)-isoquinolin-3-yl]-urea] the MIC was 16 mg/L (≈ 47.4 µM).
In the case of CCNC(=O)Nc1cc2cc(-c3cccc(NC(C)=O)c3)cc(Nc3cccnc3)c2cn1 [Example 236, N-{3-[3-(3-ethyl-ureido)-8-(pyridin-3-ylamino)-isoquinolin-6-yl]-phenyl}-acetamide], the MIC is reported as 0.5 mg/L (≈ 1.14 µM).
Compound CCNC(=O)Nc1cc2cc(-c3ccc(S(N)(=O)=O)cc3)cc(C)c2cn1 [Example 38, 4-[3-(3-ethyl-ureido)-8-methyl-isoquinolin-6-yl]-benzenesulfonamide] has an MIC of 1 mg/L (≈ 2.6 µM).
In the case of CCNC(=O)Nc1cc2cccc(COc3cccc(N)c3)c2cn1.Cl [Example 260, 1-[8-(3-amino-phenoxymethyl)-isoquinolin-3-yl]-3-ethyl-urea hydrochloride], the MIC is reported as 8 mg/L.
CCNC(=O)Nc1cc2cc(-c3ccncc3)cc(C)c2cn1 [Example 21, 1-ethyl-3-(8-methyl-6-pyridin-4-yl-isoquinolin-3-yl)-urea] showed an MIC of 1 mg/L (≈ 3.26 µM).
CCNC(=O)Nc1cc2c(-c3ccc(CO)cc3)ccc(Oc3cccnc3)c2cn1 [Example 221, 1-ethyl-3-[5-(4-hydroxymethyl-phenyl)-8-(pyridin-3-yloxy)-isoquinolin-3-yl]-urea] was tested, and the MIC was 0.5 mg/L (≈ 1.21 µM).
Compound CCNC(=O)Nc1cc2cccc(Cn3cc(CO)cn3)c2cn1 [Example 292, 1-ethyl-3-[8-(4-hydroxymethyl-pyrazol-1-ylmethyl)-isoquinolin-3-yl]-urea] has an MIC of 8 mg/L (≈ 24.6 µM).
Compound CCNC(=O)Nc1cc2c(F)c(NCc3ccccc3)cc(-c3cnc(OC)nc3)c2cn1 [Example 110, 1-[6-benzylamino-5-fluoro-8-(2-methoxy-pyrimidin-5-yl)-isoquinolin-3-yl]-3-ethyl-urea] has an MIC of 1 mg/L (≈ 2.24 µM).
CCNC(=O)Nc1cc2c(CN3CCN(C)CC3)ccc(Nc3cccc(OC)n3)c2cn1 [Example 276, 1-ethyl-3-[8-(6-methoxy-pyridin-2-ylamino)-5-(4-methyl-piperazin-1-ylmethyl)-isoquinolin-3-yl]-urea] gave an MIC of 4 mg/L (≈ 8.9 µM).
In the case of CCNC(=O)Nc1cc2cccc(Nc3ccnc(OC)c3)c2cn1 [Example 180, 1-ethyl-3-[8-(2-methoxy-pyridin-4-ylamino)-isoquinolin-3-yl]-urea], the MIC is reported as 4 mg/L (≈ 11.9 µM).
